{
  "source": "patent US7405200B2",
  "about": "“Use of oxytocin for the preparation of a pharmaceutical composition against cancer in situ and cervicitis” (priority 2001, dated 2008)",
  "system": "cancer in situ and cervicitis",
  "test": "Effect of Oxytocin on Cancer in Situ and Cervicitis in Humans (Pap smear test)",
  "assay_type": "in vivo",
  "conditions": "one patient with cancer in situ and cervicitis; oxytocin 1 mg/ml mixed with 1 ml cellulose gel intravaginally during five consecutive days",
  "method": "Patients. 20 women, all aged 60–70 years, with postmenopausal disorders, participated in a double blind cross-over randomised protocol, which means that the patients receive both oxytocin and control treatment without knowing the order of the treatments.\nExperimental procedure. The patients were treated with oxytocin 1 mg/ml mixed with 1 ml cellulose gel intravaginally during five consecutive days to relieve the postmenopausal disorders. However, it was discovered that one of the patients suffered from cancer in situ and cervicitis before the oxytocin treatment. This was established by the fact that the patient underwent a Pap smear test before the oxytocin treatment. In this test, cells desquamated from the genital epithelium are obtained by smears, fixed and stained, and examined under the microscope for evidence of pathologic changes. After the oxytocin treatment, the patient also underwent a Pap smear test.",
  "data": [
    {"substance": "oxytocin", "values": [
      {"measurement": "results of the Pap smear tests before and after oxytocin administration", "value": "the cancer in situ and cervicitis was removed"}
    ]}
  ]
}
